≈ marks a conversion by molar mass, not a printed value. Where two headings read alike, the source gives them in different places.
How the values were obtained:
[1] = test system: human myeloid leukaemia HL-60 cells; test: Toxicity assay (resazurin, 72 h) on HL-60 cells; type: cell-based; details: for MIC: determined microscopically, mean of three experiments; for GI50: Homo sapiens
Method: (§1) Bloodstream forms of T. brucei (clone 427-221a) and human myeloid leukaemia HL-60 cells were grown in Baltz medium and RPMI medium, respectively. Both culture media were supplemented with 16.7 % (v/v) heat-inactivated foetal calf serum. All cultures were maintained in a humidified atmosphere containing 5 % CO2 at 37 °C.
(§2) Cells were seeded in 96-well plates in a final volume of 200 μl of their respective culture medium containing 10-fold serial dilutions of ionophore derivatives (10^-4 to 10^-10 M) and 1 % DMSO. Wells containing medium and 1 % DMSO served as controls. The initial cell densities were 1 × 10^4/ml for T. brucei and 1 × 10^5/ml for HL-60 cells. After 24 h incubation at 37 °C in a humidified atmosphere containing 5 % CO2, 20 μl of a 0.44 mM resazurin solution prepared in PBS was added and the cells were incubated for a further 48 h so that the total incubation time was 72 h. Thereafter, the plates were read on a microplate reader using a test wavelength of 570 nm and a reference wavelength of 630 nm. The 50 % growth inhibition (GI50) value, i.e. the concentration of a compound necessary to reduce the growth rate of cells by 50 % compared to the control was determined by linear interpolation according to the method described in [22]. The minimum inhibitory concentration (MIC) values, i.e. the concentration of the drug at which all trypanosome and human cells were killed, was determined microscopically. Each compound was independently tested three times.

[2] = test system: Bloodstream forms of T. brucei (clone 427-221a); test: Toxicity assay (resazurin, 72 h) on bloodstream forms of T. brucei; type: cell-based, Trypanosoma brucei; details: for Selectivity GI50 ratio: GI50(HL-60)/GI50(T. brucei); for Selectivity MIC ratio: MIC(HL-60)/MIC(T. brucei); for GI50 / MIC: 72 h; for MIC: concentration at which all cells were killed, determined microscopically, mean of three experiments
Method: as §1, §2

[3] = test system: bloodstream forms of T. brucei; test: Measurement of changes in cell volume by light scattering; type: cell-based, Trypanosoma brucei; details: 100 μM; 5 × 10^7 cells/ml; measured every 15 min; decrease in absorbance = increase in cell volume
Method: Change in cell volume was determined by light scattering as previously described. In brief, bloodstream forms of T. brucei were seeded at a density of 5 × 10^7 cells/ml in 96-well plates in a final volume of 200 μl culture medium containing 100 μM of salinomycin or the salonimycin derivatives SAL-E7 or SAL-AM2 and 1 % DMSO. Absorbance of the cultures was measured at 490 nm every 15 min. A decrease in absorbance corresponded to an increase in cell volume. The experiment was repeated three times.
Change in cell volume can be measured by light scattering at 450–550 nm whereby a decrease in absorbance indicates swelling of cells. In order to be able to record measurable absorbance changes, a high cell density is required. […] However, the derivatives caused a slightly faster swelling of the cells than salinomyicn. […] During further incubation, trypanosomes increased their cell volume but cell swelling was much slower and much less. […] However, it seems that the transport efficiency determines the trypanocidal potency of salinomycin derivatives.
Fig. 3 Effect of salinomycin derivatives on the cell volume of bloodstream forms of T. brucei. […] Every 15 min, the absorbance at 490 nm was measured. […] Note that a decrease in absorbance corresponds to an increase in cell volume

[4] = test system: human peripheral blood mononuclear cells; design: method as in PMID 23517602, PMID 25769976; details: read-out: 50 % effective concentration (cytotoxicity); cited from earlier work
[5] = test system: Bloodstream forms of T. brucei (clone 427-221a); design: method as in PMID 23517602; details: human cells vs bloodstream forms of T. brucei; cited from earlier work
[6] = test system: human nasal mucosa cells; design: method as in PMID 23517602, PMID 25769976; details: read-out: 50 % effective concentration (cytotoxicity); cited from earlier work
[7] = Trypanosoma brucei, T. brucei bloodstream forms
[8] = HL-60 cells, 72 h, resazurin, mean ± SD of three experiments, read-out: GI50
[9] = Trypanosoma brucei, T. brucei bloodstream forms, read-out: MIC
[10] = Trypanosoma brucei, T. brucei bloodstream forms, resazurin, mean ± SD of three experiments, read-out: GI50

SMILES	MIC ([1]; HL-60 cells, 72 h) [µM]	GI50 ([1]; HL-60, 72 h) [µM]	Selectivity GI50 ratio [2]	Selectivity MIC ratio [2]	GI50 ([2]; Trypanosoma brucei) [µM]	MIC [2, 7] [µM]	GI50 [1, 8] [µM]	MIC [2, 9] [µM]	GI50 [2, 10] [µM]	Effect on cell volume (absorbance at 490 nm) [3]	MIC ([2]; T. brucei bloodstream forms) [µM]	MIC ([2]; T. brucei bloodstream forms, listed as salinomycin n-butyl amide)	MIC ([2]; T. brucei bloodstream forms, read-out: MIC) [µM]	EC50 [4] [µM]	selectivity (cytotoxic/trypanocidal ratio) [5]	EC50 [6] [µM]
CCC1(C2OC(C3OC(O)(CO)C(C)CC3C)CC2C)CCC(C2(C)CCC3(CC(O)C(C)C(C(C)C(OC)C(C)C(=O)OC)O3)O2)O1 (centres unmarked) [MON-E1]	100 (≈ 68.5 µg/mL)	34.1 ± 2.2	11.1	10	3.06 ± 0.06	10 (≈ 6.85 µg/mL)	–	–	–	–	–	–	–	–	–	–
CCC1(C2OC(C3OC(O)(CO)C(C)CC3C)CC2C)CCC(C2(C)CCC3(CC(O)C(C)C(C(C)C(OC)C(C)C(=O)OCCO)O3)O2)O1 (centres unmarked) [MON-E2]	100 (≈ 71.5 µg/mL)	25.3 ± 5	9.2	10	2.76 ± 0.1	10 (≈ 7.15 µg/mL)	–	–	–	–	–	–	–	–	–	–
CCC1(C2OC(C3OC(O)(CO)C(C)CC3C)CC2C)CCC(C2(C)CCC3(CC(O)C(C)C(C(C)C(OC)C(C)C(=O)OCCOCCOC)O3)O2)O1 (centres unmarked) [MON-E3]	100 (≈ 77.3 µg/mL)	20.3 ± 3.1	12.1	10	1.68 ± 0.56	10 (≈ 7.73 µg/mL)	–	–	–	–	–	–	–	–	–	–
C=CCNC(=O)OCC1(O)OC(C2CC(C)C(C3(CC)CCC(C4(C)CCC5(CC(O)C(C)C(C(C)C(OC)C(C)C(=O)O)O5)O4)O3)O2)C(C)CC1C (centres unmarked) [MON-UR1]	100 (≈ 75.4 µg/mL)	23.3 ± 6.6	75	100	0.31 ± 0.06	1 (≈ 0.754 µg/mL)	–	–	–	–	–	–	–	–	–	–
CC[C@@]1([C@@H]2O[C@@H]([C@H]3O[C@@](O)(CO)[C@H](C)C[C@@H]3C)C[C@@H]2C)CC[C@H]([C@]2(C)CC[C@]3(C[C@H](O)[C@@H](C)[C@@H]([C@@H](C)[C@@H](OC)[C@H](C)C(=O)O)O3)O2)O1 [Monensin, monensin]	10 (≈ 6.71 µg/mL)	–	51	100	–	–	1.48 ± 0.56	0.1 (≈ 0.0671 µg/mL)	0.029 ± 0.002	–	–	–	–	–	–	–
C=CCNC(=O)C(CC)C1CCC(C)C(C(C)C(O)C(C)C(=O)C(CC)C2OC3(C=CC(O)C4(CCC(C)(C5CCC(O)(CC)C(C)O5)O4)O3)C(C)CC2C)O1 (centres unmarked) [SAL-AM1]	100 (≈ 79 µg/mL)	38.9 ± 3.2	12.0	10	3.23 ± 0.21	10 (≈ 7.9 µg/mL)	–	–	–	–	–	–	–	–	–	–
CCCCNC(=O)C(CC)C1CCC(C)C(C(C)C(O)C(C)C(=O)C(CC)C2OC3(C=CC(O)C4(CCC(C)(C5CCC(O)(CC)C(C)O5)O4)O3)C(C)CC2C)O1 (centres unmarked) [SAL-AM2, salinomycin n-butyl amide]	100 (≈ 80.6 µg/mL)	14.5 ± 1.3	greater than 250	–	0.04 ± 0.007	–	–	–	–	cell swelling similar to parasites treated with salinomycin	0.1 to 1	below 1 μM	0.1 (≈ 0.0806 µg/mL)	–	–	–
CCC(C(=O)NCc1ccccc1)C1CCC(C)C(C(C)C(O)C(C)C(=O)C(CC)C2OC3(C=CC(O)C4(CCC(C)(C5CCC(O)(CC)C(C)O5)O4)O3)C(C)CC2C)O1 (centres unmarked) [SAL-AM3]	100 (≈ 84 µg/mL)	7.92 ± 1.95	2.7	10	2.94 ± 0.2	10 (≈ 8.4 µg/mL)	–	–	–	–	–	–	–	–	–	–
CCC(C(=O)NCCc1c[nH]c2ccccc12)C1CCC(C)C(C(C)C(O)C(C)C(=O)C(CC)C2OC3(C=CC(O)C4(CCC(C)(C5CCC(O)(CC)C(C)O5)O4)O3)C(C)CC2C)O1 (centres unmarked) [SAL-AM4]	100 (≈ 89.3 µg/mL)	24.5 ± 3.7	9.1	10	2.69 ± 0.51	10 (≈ 8.93 µg/mL)	–	–	–	–	–	–	–	–	–	–
CCC(C(=O)NCCc1ccc(F)cc1)C1CCC(C)C(C(C)C(O)C(C)C(=O)C(CC)C2OC3(C=CC(O)C4(CCC(C)(C5CCC(O)(CC)C(C)O5)O4)O3)C(C)CC2C)O1 (centres unmarked) [SAL-AM5]	100 (≈ 87.2 µg/mL)	39.2 ± 1.6	14.6	10	2.69 ± 0.2	10 (≈ 8.72 µg/mL)	–	–	–	–	–	–	–	–	–	–
CCC(C(=O)OC)C1CCC(C)C(C(C)C(O)C(C)C(=O)C(CC)C2OC3(C=CC(O)C4(CCC(C)(C5CCC(O)(CC)C(C)O5)O4)O3)C(C)CC2C)O1 (centres unmarked) [SAL-E1]	100 (≈ 76.5 µg/mL)	35.5 ± 2.4	11.4	10	3.08 ± 0.18	10 (≈ 7.65 µg/mL)	–	–	–	–	–	–	–	–	–	–
CCC(C(=O)OCCO)C1CCC(C)C(C(C)C(O)C(C)C(=O)C(CC)C2OC3(C=CC(O)C4(CCC(C)(C5CCC(O)(CC)C(C)O5)O4)O3)C(C)CC2C)O1 (centres unmarked) [SAL-E2]	100 (≈ 79.5 µg/mL)	34.6 ± 1.9	10.6	10	3.25 ± 0.26	10 (≈ 7.95 µg/mL)	–	–	–	–	–	–	–	–	–	–
C=CCOC(=O)C(CC)C1CCC(C)C(C(C)C(O)C(C)C(=O)C(CC)C2OC3(C=CC(O)C4(CCC(C)(C5CCC(O)(CC)C(C)O5)O4)O3)C(C)CC2C)O1 (centres unmarked) [SAL-E3]	100 (≈ 79.1 µg/mL)	33.8 ± 3.5	10.9	10	3.1 ± 0.21	10 (≈ 7.91 µg/mL)	–	–	–	–	–	–	–	–	–	–
CCCCOC(=O)C(CC)C1CCC(C)C(C(C)C(O)C(C)C(=O)C(CC)C2OC3(C=CC(O)C4(CCC(C)(C5CCC(O)(CC)C(C)O5)O4)O3)C(C)CC2C)O1 (centres unmarked) [SAL-E4]	100 (≈ 80.7 µg/mL)	32.9 ± 2.5	10.5	10	3.12 ± 0.08	10 (≈ 8.07 µg/mL)	–	–	–	–	–	–	–	–	–	–
CCC(C(=O)OCc1ccccc1)C1CCC(C)C(C(C)C(O)C(C)C(=O)C(CC)C2OC3(C=CC(O)C4(CCC(C)(C5CCC(O)(CC)C(C)O5)O4)O3)C(C)CC2C)O1 (centres unmarked) [SAL-E5]	100 (≈ 84.1 µg/mL)	38.4 ± 4.2	–	10	3.21 ± 0.02	10 (≈ 8.41 µg/mL)	–	–	–	–	–	–	–	–	–	–
CC[C@@H](C(=O)[C@@H](C)[C@@H](O)[C@H](C)[C@@H]1O[C@@H]([C@@H](CC)C(=O)O)CC[C@@H]1C)[C@H]1O[C@]2(C=C[C@@H](O)[C@]3(CC[C@@](C)([C@H]4CC[C@](O)(CC)[C@H](C)O4)O3)O2)[C@H](C)C[C@@H]1C [Salinomycin, salinomycin]	1 (≈ 0.751 µg/mL)	0.44 ± 0.21	2.4	1	0.18 ± 0.06	1 (≈ 0.751 µg/mL)	–	–	–	continued to swell until the end of experiment	–	–	–	30	< 100	11
Cc1ccc(C(=O)Nc2ccc(S(=O)(=O)O)c3cc(S(=O)(=O)O)cc(S(=O)(=O)O)c23)cc1NC(=O)c1cccc(NC(=O)Nc2cccc(C(=O)Nc3cc(C(=O)Nc4ccc(S(=O)(=O)O)c5cc(S(=O)(=O)O)cc(S(=O)(=O)O)c45)ccc3C)c2)c1 [Suramin, suramin, reference compound]	> 100	–	> 2857	> 1000	–	–	> 100	0.1 (≈ 0.13 µg/mL)	0.035 ± 0.002	–	–	–	–	–	–	–
